Test results: patent publication US20150018427A1, “COMPOUNDS FOR TREATING PARVOVIRUS INFECTION” (ARATANA THERAPEUTICS NV, priority 2012, published 2015)
Where a name gives a salt, the structure may show the parent alone.

How the values were obtained:
[1] = system: feline panleukopenia virus (FPV); assay: CPE visual scoring assay, FPV in CrFK cells; assay type: cell-based
Procedure: Crandell Reese Feline Kidney (CrFK) cells were grown in Dulbecco minimum essential medium (DMEM, Life Technologies) containing 1% sodium bicarbonate (Life Technologies), 1% L-Glutamine (Life Technologies) and 5% fetal calf serum (FCS, Biochrom). In a 96 well plate a serial dilution of compound was added together with 10 TCID50 of feline panleukopenia virus (FPV) or 10 TCID50 canine parvovirus 2c (CPV-2c) and 20,000 CrFK cells. Infected cells without any added compound were used as positive controls (virus control) and uninfected cells were used as negative controls (cell control). The cells were incubated for 4 days and viral cytopathogenic effect (CPE) was scored visually. EC50-values were determined as the concentration of compound that inhibited 50% of the viral replication as compared with virus control.
2-methyladamantan-2-amine HCl and 2-ethyladamantan-2-amine HCl were dissolved in Dulbecco's phosphate buffered saline (DPBS) at a concentration of 10 mM. The inhibition experiments and the preparation thereof were performed as described above for Example 2. […]

[2] = system: canine parvovirus 2c (CPV-2c); assay: CPE visual scoring assay, CPV-2c in CrFK cells; assay type: cell-based
[3] = system: feline panleukopenia virus (FPV); assay: FPV DNA reduction by quantitative PCR, CrFK cells; assay type: cell-based; conditions: read-out: EC50-value (μM) for FPV, DNA reduction
Procedure: (§1) Amantadine, amantadine hydrochloride (HCl) and memantine were dissolved in Dulbecco's phosphate buffered saline (DPBS) at a concentration of 10 mM. Crandell Reese Feline Kidney (CrFK) cells were grown in Dulbecco minimum essential medium (DMEM, Life Technologies) containing 1% sodium bicarbonate (Life Technologies), 1% L-Glutamine (Life Technologies) and 5% fetal calf serum (FCS, Biochrom). In a 24 well plate 100,000 CrFK cells were seeded on day 0. On day 1, the medium was removed and 10 TCID50 of FPV or 10 TCID50 CPV-2c was added and incubated for 2 h at 37° C. in humidified conditions. After incubation, medium was removed and CrFK cells were washed with DPBS. Subsequently, a serial dilution of compound in culture medium was added (250, 50, and 10 μM). Infected cells without any added compound were used as positive controls (virus control) and uninfected cells were used as negative controls (cell control). The cells were incubated at 37° C. in humidified conditions. After 4 days of incubation medium containing newly produced virus particles was collected and viral titers were determined using CrFK cells. In addition, 200 μL of supernatant was extracted to obtain FPV or CPV-2c DNA using the QIAamp DNA extraction kit (Qiagen). The extracted FPV DNA was detected by a real time PCR using the Taqman Fast Universal mastermix (Life Technologies) and the standard Fast cycling protocol using the StepOnePlus real time device (Applied Biosystems). In the PCR mixture an optimized 900 nM of each forward and reverse primer was used and 250 nM FAM-BHQ1 labeled probe as published by Decaro et al. (J. Virol. Methods 2008, 147, 67-71). EC50 values were determined as the concentration of compound that inhibited 50% of the viral DNA.
2-methyladamantan-2-amine HCl and 2-ethyladamantan-2-amine HCl were dissolved in Dulbecco's phosphate buffered saline (DPBS) at a concentration of 10 mM. The inhibition experiments and the preparation thereof were performed as described above for Example 2.

[4] = system: canine parvovirus 2c (CPV-2c); assay: CPV-2c DNA reduction by quantitative PCR, CrFK cells; assay type: cell-based
[5] = system: canine parvovirus 2c (CPV-2c); assay: CPV-2c titer reduction, titration of produced virus on CrFK cells; assay type: cell-based
[6] = system: feline panleukopenia virus (FPV); assay: FPV titer reduction, titration of produced virus on CrFK cells; assay type: cell-based
Procedure: as §1
Reduction of CPV-2c and FPV titers under increasing concentrations of amantadine hydrochloride (HCl) and memantine are shown in Table 3a and 3b, respectively. Viral titers are determined by titration of the produced virus on CrFK cells and incubated for 5 days. The obtained titers where compared with the control (virus production without addition of compound).

[7] = system: canine parvovirus type 2 (CPV2); assay: Treatment of dog naturally infected with canine parvovirus type 2; assay type: in vivo; conditions: beagle puppy, CPV2 PCR-positive, 10 mg/kg twice daily for 2 weeks
[8] = Feline panleukopenia virus, CRFK, 96 h, Table 1, CPE visual scoring, CrFK cells, 10 TCID50, 4 days, read-out: EC50-value (μM) for FPV
[9] = Canine parvovirus, CRFK, 96 h, read-out: EC50-value (μM) for CPV-2c, Table 1, CPE visual scoring, CrFK cells, 10 TCID50, 4 days
[10] = Feline panleukopenia virus, CRFK, 96 h, Table 2, viral DNA in supernatant by quantitative PCR, CrFK cells, 4 days
[11] = Canine parvovirus, 96 h, Table 1, CPE visual scoring, CrFK cells, 10 TCID50, 4 days, read-out: EC50-value (μM) for CPV-2c
[12] = 96 h, Table 2, viral DNA in supernatant by quantitative PCR, CrFK cells, 4 days, read-out: EC50-value (μM) for CPV-2c, DNA reduction
[13] = Feline panleukopenia virus, CRFK, read-out: EC50-value (μM) for FPV, Table 4a, CPE visual scoring assay
[14] = Canine parvovirus, CRFK, Table 4a, CPE visual scoring assay, read-out: EC50-value (μM) for CPV-2c
[15] = Feline panleukopenia virus, CRFK, Table 4b, quantitative PCR
[16] = CRFK, Table 4b, quantitative PCR, read-out: EC50-value (μM) for CPV-2c, DNA reduction

SMILES	EC50 [1, 8]	Titer reduction of CPV-2c, log10 reduction compared with control ([5]; 10 μM compound)	Titer reduction of CPV-2c, log10 reduction compared with control ([5]; 50 μM compound)	Titer reduction of CPV-2c, log10 reduction compared with control ([5]; 250 μM compound)	Titer reduction of FPV, log10 reduction compared with control ([6]; 10 μM compound)	Titer reduction of FPV, log10 reduction compared with control ([6]; 50 μM compound)	Titer reduction of FPV, log10 reduction compared with control ([6]; 250 μM compound)	EC50 [2, 11]	also measured
NC12CC3CC(CC(C3)C1)C2 [Amantadine, amantadine]	18.7 µM	0 log10	2.23 log10	2.23 log10	0 log10	0.48 log10	1.43 log10		EC50 [2, 9]: 22.6 µM; EC50 [3, 10]: 57.1 µM; EC50 ([4]; CRFK, 96 h, read-out: EC50-value (μM) for CPV-2c, DNA reduction, Table 2, viral DNA in supernatant by quantitative PCR, CrFK cells, 4 days): 53.5 µM
NC1C2CC3CC(C2)CC1C3 (centres unmarked) [2-adamantylamine HCl, 2-adamantylamine hydrochloride]	17.3 µM							5.12 µM	
Cl.NC12CC3CC(CC(C3)C1)C2 [Amantadine HCl, 1-Aminoadamantane hydrochloride]		0.50 log10	2.71 log10	2.71 log10	0 log10	1.50 log10	2.44 log10	14 µM	EC50 ([1]; Table 1, CPE visual scoring, CrFK cells, 10 TCID50, 4 days, hydrochloride, read-out: EC50-value (μM) for FPV): 33.3 µM; EC50 ([3]; Table 2, viral DNA in supernatant by quantitative PCR, CrFK cells, 4 days, hydrochloride): 30.1 µM; EC50 [4, 12]: 6.59 µM; Clinical signs of parvovirus infection [7]: improved from day 3 onwards; Recovery after 2 weeks of treatment [7]: recovered completely
CC(N)C12CC3CC(CC(C3)C1)C2 (centres unmarked) [Rimantadine, rimantadine]	> 250 µM								EC50 [2, 9]: > 250 µM
CCC1(N)C2CC3CC(C2)CC1C3 (centres unmarked) [2-ethyladamantan-2-amine]									EC50 [1, 13]: 2.42 µM; EC50 [2, 14]: 4.2 µM; EC50 [3, 15]: 1.31 µM; EC50 [4, 16]: 2.44 µM
NC12CC3CC(C1)CC(O)(C3)C2 [3-amino-1-amantadol]									EC50 ([1]; Table 1, CPE visual scoring, CrFK cells, 10 TCID50, 4 days, read-out: EC50-value (μM) for FPV): > 250 µM; EC50 ([2]; Table 1, CPE visual scoring, CrFK cells, 10 TCID50, 4 days, read-out: EC50-value (μM) for CPV-2c): > 250 µM
NCC12CC3CC(CC(C3)C1)C2 [1-adamantanemethylamine]	> 250 µM							> 250 µM	
CNC12CC3CC(CC(C3)C1)C2 [N-methyl-1-adamantylamine]	> 250 µM							> 250 µM	
CC12CC3CC(C)(C1)CC(N)(C3)C2 [Memantine, memantine]	23.3 µM	0 log10	0.50 log10	1.55 log10	0 log10	0.71 log10	1.41 log10	23.9 µM	EC50 [3, 10]: 42.6 µM; EC50 [4, 12]: 17.9 µM
CC1(N)C2CC3CC(C2)CC1C3 (centres unmarked) [2-methyladamantan-2-amine]									EC50 [1, 13]: 1.95 µM; EC50 [2, 14]: 2.25 µM; EC50 [3, 15]: < 0.781 µM; EC50 [4, 16]: 1.14 µM
